One assay concerns the target hNET (Homo sapiens (Human), UniProt P23975). Nature of the assay: NET radioligand binding assay ([3H]nisoxetine, HEK-293 membranes). Particulars: (+)-enantiomers. The procedure:
Recombinant HEK-293 cells expressing either the hSERT, hDAT, or hNET proteins were harvested from T-175 flasks as follows. The medium was removed from the flasks and the cells rinsed with HBSS without Ca and without Mg. The cells were then incubated for 5-10 minutes in 10 mM Tris-Cl, pH 7.5, 5 mM EDTA before the cells were lifted with a combination of pipetting and scraping, as needed. The cell suspension was collected into centrifuge bottles and homogenized for 30 seconds with a Polytron homogenizer. The suspension was centrifuged for 30 minutes at 32,000×g, 4° C. The supernatant was decanted and the pellet resuspended and homogenized in 50 mM Tris-Cl, pH 7.5, 1 mM EDTA for 10 seconds. The suspension was then centrifuged again for 30 minutes at 32,000×g, 4° C. The supernatant was decanted and the pellet resuspended in 50 mM Tris-Cl, pH 7.5, 1 mM EDTA and briefly homogenized. A Bradford assay (Bio-rad) was performed and the membrane preparation diluted to 2 mg/ml with 50 mM Tris-Cl, pH 7.5, 1 mM EDTA. Aliquots were prepared, and then frozen and stored at −80° C.
Compounds were dissolved in 100% DMSO at a concentration 100 times the desired highest assay concentration, serially diluted 1:3 in 100% DMSO, and 1.0 μl/well of each solution was dispensed to a Nunc polypropylene, round bottom, 384-well plate. 100% inhibition is defined with 1.0 μl/well of 10 mM desipramine dissolved in DMSO. 50 μl/well of a 2× membrane preparation (0.4 mg/ml in 50 mM Tris-Cl, pH 7.5, 120 mM NaCl, 5 mM KCl) and 50 μl/well of a 2× radioligand solution (4 nM [^3H]nisoxetine in 50 mM Tris-Cl, pH 7.5, 120 mM NaCl, 5 mM KCl) were added to the well and the reaction incubated for 1 hour at room temperature. The contents of the assay plate were then transferred to a Millipore MultiscreenHTS GF/B filter plate which was pretreated with 0.5% PEI for at least one hour. The plate was vacuum filtered and washed with 7 washes of 100 μl/well 50 mM Tris-Cl, pH 7.5, 120 mM NaCl, 5 mM KCl chilled to 4° C. The filtration and washing were completed in less than 90 seconds. The plates were air-dried overnight, 12 μl/well of MicroScint scintillation fluid added, and the plates counted in a Trilux.
The raw data was normalized to percent inhibition using control wells defining 0% (DMSO only) and 100% (selective inhibitor) inhibition which were run on each plate. Each plate was run in triplicate, and the concentration response curve thus generated was fit using the four-parameter dose response equation, Y=Bottom+(Top-Bottom)/(1+10^((LogIC50−X)*HillSlope)) in order to determine the IC50 value for each compound. The radioligand concentration chosen for each assay corresponds to the Kd concentration determined through saturation binding analysis for each assay.

A further assay has as its system SERT. As to the kind of experiment: Occupancy assay, ex vivo binding in brain tissue, SERT. From the text:
(§1) The general procedure for brain tissue collection and transporter occupancy assessment is briefly described as follows. Mice were sacrificed by asphyxiation in CO2, rats by decapitation and dogs by IV injection of euthanasia solution. For mice and rats, after the brains were removed from the skull, the forebrain tissue (removal of the brainstem and cerebellum) was used for SERT, NET, and DAT occupancy assessment. In dogs, the striatum was dissected for DAT occupancy and the remaining forebrain tissue (without the striatum, brainstem, and cerebellum) was used for SERT and NET occupancy assessment. The brain tissues were frozen in chilled isopentane and stored at −80° C. until homogenization.
(§2) The brain tissues were thawed and then homogenized using a polytron homogenizer (Kinematica). Sample aliquots were frozen immediately and stored at −80° C. Protein content was measured for each sample using a Coomassie protein assay kit (Pierce).
On the day of ex vivo binding for occupancy assessment, frozen sample aliquots were thawed and needle homogenized, and 100 μg of the tissue was incubated for SERT, NET, and DAT binding under assay conditions summarized in Table 2. After incubation, the reactions were terminated by the addition of ice-cold assay buffer and rapid filtration through a Brandel Cell Harvester using FPXLR-196 filters. The filters were washed twice with ice-cold incubation buffer, punched into a clear plate prior to the addition of 200 ul scintillation fluid per well. Radioligand was measured using a Wallac Microbeta liquid scintillation counter.
The specific binding was calculated by subtracting the value of the non-specific binding from that of the total binding in each sample. The percent occupancy was calculated as (1−specific binding in drug treated/specific binding in vehicle treated)×100%. For estimation of in vivo occupancy EC50 (total plasma concentration of compound producing 50% occupancy), plots of occupancy values versus plasma concentrations were fitted to a one-site binding model using nonlinear regression according to the following equation: % Occupancy=Emax*C/(EC50+C) where Emax is the maximal specific binding, C is the drug concentration, and EC50 is the total plasma concentration required for 50% binding site occupancy. Nonlinear regression was performed using GraphPad Prism version 3.00 (GraphPad Software, San Diego, Calif.).

The test system of the next assay is DAT. Nature of the assay: Occupancy assay, ex vivo binding in brain tissue, DAT.
From the text: as §1, §2
(§3) On the day of ex vivo binding for occupancy assessment, frozen sample aliquots were thawed and needle homogenized, and 100 μg of the tissue was incubated for SERT, NET, and DAT binding under assay conditions summarized in Table 2. […] The filters were washed twice with ice-cold incubation buffer, punched into a clear plate prior to the addition of 200 ul scintillation fluid per well. Radioligand was measured using a Wallac Microbeta liquid scintillation counter.
(§4) The specific binding was calculated by subtracting the value of the non-specific binding from that of the total binding in each sample. The percent occupancy was calculated as (1−specific binding in drug treated/specific binding in vehicle treated)×100%. […] Nonlinear regression was performed using GraphPad Prism version 3.00 (GraphPad Software, San Diego, Calif.).

The subject of the next assay is NET. As to the kind of experiment: Occupancy assay, ex vivo binding in brain tissue, NET.
From the text: as §1, §2, §3, §4

Sequence of hNET (P23975 whole entry): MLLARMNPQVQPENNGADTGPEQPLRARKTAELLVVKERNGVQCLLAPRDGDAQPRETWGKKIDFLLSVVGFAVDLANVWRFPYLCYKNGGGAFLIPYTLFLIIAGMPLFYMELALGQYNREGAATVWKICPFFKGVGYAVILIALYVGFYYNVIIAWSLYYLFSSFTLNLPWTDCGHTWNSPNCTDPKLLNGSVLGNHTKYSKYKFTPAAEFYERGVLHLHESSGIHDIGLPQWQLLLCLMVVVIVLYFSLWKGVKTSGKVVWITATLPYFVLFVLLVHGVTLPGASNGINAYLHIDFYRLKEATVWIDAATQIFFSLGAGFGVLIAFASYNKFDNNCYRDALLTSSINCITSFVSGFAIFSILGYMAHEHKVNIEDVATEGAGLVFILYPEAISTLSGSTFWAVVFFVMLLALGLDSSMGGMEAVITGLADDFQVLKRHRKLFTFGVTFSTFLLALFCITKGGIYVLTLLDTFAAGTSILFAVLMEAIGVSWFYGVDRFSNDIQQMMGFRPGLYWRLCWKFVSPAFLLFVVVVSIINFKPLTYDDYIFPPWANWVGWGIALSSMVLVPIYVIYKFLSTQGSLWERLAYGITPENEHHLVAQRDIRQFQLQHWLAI

Consider `CC1(C)NCC(c2ccc(Cl)c(Cl)c2)c2ccc(-c3cccnn3)cc21` (single isomer, unassigned) [Example 9, 4-(3,4-dichlorophenyl)-1,1-dimethyl-7-(pyridazin-3-yl)-1,2,3,4-tetrahydroisoquinoline], for which, on hNET, the half-inhibitory concentration (IC50) turned out to be 0.133 µM. Besides, the “SERT Occupancy %” value in the assay on SERT (dose 1 mg/kg, time point 1 h) is 60%. In addition, the “DAT Occupancy %” value in the assay on DAT (dose 1 mg/kg, time point 1 h) is given as 71%. Further, the “NET Occupancy %” value in the assay with NET (dose 1 mg/kg, time point 1 h) was 20%.

Take `FC(F)Oc1ccc(-c2ccc3c(c2)CNCC3c2ccc(Cl)c(Cl)c2)nn1` (stereo not shown) [Example 12, 4-(3,4-dichlorophenyl)-7-(6-(difluoromethoxy)pyridazin-3-yl)-1,2,3,4-tetrahydroisoquinoline]: at hNET, the IC50 is 0.0188 µM. Further, in the assay on SERT (dose 1 mg/kg, time point 3 h), the “SERT Occupancy %” value came out at 82%. Besides, in the assay on DAT (dose 1 mg/kg, time point 3 h), the “DAT Occupancy %” value is given as 15%. The “NET Occupancy %” value with NET (dose 1 mg/kg, time point 3 h) is 46%.

In the case of `CC1(C)NCC(c2ccc(Cl)c(Cl)c2)c2ccc(-c3ccc(N)nn3)cc21` (stereo not shown) [Example 13, 4-(3,4-dichlorophenyl)-7-(6-aminopyridazin-3-yl)-1,1-dimethyl-1,2,3,4-tetrahydroisoquinoline], at hNET, the half-maximal inhibitory concentration (IC50) came to 0.097 µM. In addition, the “SERT Occupancy %” value with SERT (dose 3 mg/kg, time point 3 h) turned out to be 55%. Also, in the assay with DAT (dose 3 mg/kg, time point 3 h), the “DAT Occupancy %” value is on record as 53%. Further, in the assay with NET (dose 3 mg/kg, time point 3 h), the “NET Occupancy %” value came out at 5%.

`Cc1noc(C)c1-c1ccc2c(c1)CNCC2c1ccc(Cl)c(Cl)c1` (stereo not shown) [Example 25, 4-(4-(3,4-dichlorophenyl)-1,2,3,4-tetrahydroisoquinolin-7-yl)-3,5-dimethylisoxazole]: the half-maximal inhibitory concentration (IC50) at hNET was 0.195 µM. Moreover, in the assay on SERT (dose 1 mg/kg, time point 3 h), the “SERT Occupancy %” value turned out to be 50%. The “DAT Occupancy %” value with DAT (dose 1 mg/kg, time point 3 h) amounted to 0%. Further, the “NET Occupancy %” value in the assay with NET (dose 1 mg/kg, time point 3 h) is 0%.

With `Clc1ccc(C2CNCc3cc(-c4cccnn4)ccc32)cc1Cl` (stereo not shown) [Example 33, 4-(3,4-dichlorophenyl)-7-(pyridazin-3-yl)-1,2,3,4-tetrahydroisoquinoline], the IC50 at hNET stood at 0.0264 µM. In the assay with SERT (dose 1 mg/kg, time point 1 h), the “SERT Occupancy %” value was found to be 49%. Further, in the assay on DAT (dose 1 mg/kg, time point 1 h), the “DAT Occupancy %” value worked out at 8%. Further, the “NET Occupancy %” value with NET (dose 1 mg/kg, time point 1 h) was determined as 3%.

For `Nc1ccc(-c2ccc3c(c2)CNCC3c2ccc(Cl)c(Cl)c2)nn1` (stereo not shown) [Example 34, 6-(4-(3,4-dichlorophenyl)-1,2,3,4-tetrahydroisoquinolin-7-yl)pyridazin-3-amine], the IC50 at hNET is 0.0229 µM. Also, in the assay on SERT (dose 1 mg/kg, time point 1 h), the “SERT Occupancy %” value was 10%. Also, the “DAT Occupancy %” value in the assay with DAT (dose 1 mg/kg, time point 1 h) was found to be 0%. The “NET Occupancy %” value in the assay with NET (dose 1 mg/kg, time point 1 h) is recorded as 11%.

For the compound `CC1(C)NCC(c2ccc(Cl)c(Cl)c2)c2ccc(-c3ccc4ncnn4c3)cc21` (stereo not shown) [Example 40, 4-(3,4-dichlorophenyl)-7-([1,2,4]triazolo[1,5-a]pyridin-6-yl)-1,1-dimethyl-1,2,3,4-tetrahydroisoquinoline], the IC50 at hNET worked out at 0.051 µM. Also, the “SERT Occupancy %” value in the assay with SERT (dose 3 mg/kg, time point 3 h) worked out at 74%. Further, the “DAT Occupancy %” value with DAT (dose 3 mg/kg, time point 3 h) is listed as 78%. The “NET Occupancy %” value in the assay with NET (dose 3 mg/kg, time point 3 h) is listed as 1%.

A word on the IC50: it is the concentration at which inhibition is half-maximal.

Values taken from patent US9034899B2, “Aryl, heteroaryl, and heterocycle substituted tetrahydroisoquinolines and use thereof” (Albany Molecular Research, Inc., priority 2009, dated 2015).
